# According to PubChem BioAssay (NCI):
#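 Assay format: 96-well plates, 48-hour exposure. GI50 = concentration required for 50% inhibition of growth. At the TGI there is no net growth.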
# Assays:
# Experiment in all cases: NCI tumour cell line growth inhibition, 48 h
# A498 renal = system: A498 renal
# SK-MEL-5 melanoma = system: SK-MEL-5 melanoma
# RPMI-8226 leukemia = system: RPMI-8226 leukemia
# RXF 393 renal = system: RXF 393 renal
# HCC-2998 colon = system: HCC-2998 colon
# EKVX NSCLC = system: EKVX NSCLC
# U251 CNS = system: U251 CNS
# HOP-62 NSCLC = system: HOP-62 NSCLC
# UACC-257 melanoma = system: UACC-257 melanoma
# MOLT-4 leukemia = system: MOLT-4 leukemia
# OVCAR-4 ovarian = system: OVCAR-4 ovarian
# HL-60(TB) leukemia = system: HL-60(TB) leukemia
# LOX IMVI melanoma = system: LOX IMVI melanoma
# T-47D breast = system: T-47D breast
# HOP-92 NSCLC = system: HOP-92 NSCLC
# HCT-15 colon = system: HCT-15 colon
# COLO 205 colon = system: COLO 205 colon
# SK-MEL-28 melanoma = system: SK-MEL-28 melanoma
# NCI-H23 lung = system: NCI-H23 lung
# SK-OV-3 ovarian = system: SK-OV-3 ovarian
# SW-620 colon = system: SW-620 colon
# UACC-62 melanoma = system: UACC-62 melanoma
# MDA-MB-231 breast = system: MDA-MB-231 breast
# SR leukemia = system: SR leukemia
# HS 578T breast = system: HS 578T breast
# NCI-H226 lung = system: NCI-H226 lung
# NCI-H460 lung = system: NCI-H460 lung
# A549 NSCLC = system: A549 NSCLC
# DU-145 prostate = system: DU-145 prostate
# BT-549 breast = system: BT-549 breast
# PC-3 prostate = system: PC-3 prostate
# SF-539 CNS = system: SF-539 CNS
# SF-295 CNS = system: SF-295 CNS
# M14 melanoma = system: M14 melanoma
# 786-0 renal = system: 786-0 renal
# NCI/ADR-RES ovarian = system: NCI/ADR-RES ovarian
# MCF7 breast = system: MCF7 breast
# OVCAR-8 ovarian = system: OVCAR-8 ovarian
# K-562 leukemia = system: K-562 leukemia
# OVCAR-3 ovarian = system: OVCAR-3 ovarian
# OVCAR-5 ovarian = system: OVCAR-5 ovarian
# MDA-MB-435 = system: MDA-MB-435
# IGROV1 ovarian = system: IGROV1 ovarian
# SF-268 CNS = system: SF-268 CNS
# CCRF-CEM leukemia = system: CCRF-CEM leukemia
# MALME-3M melanoma = system: MALME-3M melanoma
# NCI-H522 lung = system: NCI-H522 lung
# ACHN renal = system: ACHN renal
# KM12 colon = system: KM12 colon
# TK-10 renal = system: TK-10 renal
# CAKI-1 renal = system: CAKI-1 renal
# UO-31 renal = system: UO-31 renal
# SNB-19 CNS = system: SNB-19 CNS
# SN12C renal = system: SN12C renal
# HCT-116 colon = system: HCT-116 colon
# SK-MEL-2 melanoma = system: SK-MEL-2 melanoma
compound,measurement,setting,value
c1cc2ccc3cc2cc1CNCCN1CCNCc2ccc4ccc(cc4c2)CNCCN(CCNC3)CCNCc2ccc3ccc(cc3c2)CNCC1,GI50,A498 renal,10.9 µM
same,TGI,A498 renal,30.4 µM
same,GI50,SK-MEL-5 melanoma,56 µM
same,TGI,SK-MEL-5 melanoma,> 100 µM
same,GI50,RPMI-8226 leukemia,1.62 µM
same,TGI,RPMI-8226 leukemia,6.03 µM
same,GI50,RXF 393 renal,17.3 µM
same,TGI,RXF 393 renal,39.4 µM
same,GI50,HCC-2998 colon,2.27 µM
same,TGI,HCC-2998 colon,6.4 µM
same,GI50,EKVX NSCLC,4.84 µM
same,TGI,EKVX NSCLC,> 100 µM
same,GI50,U251 CNS,1.48 µM
same,TGI,U251 CNS,10.4 µM
same,GI50,HOP-62 NSCLC,2.99 µM
same,TGI,HOP-62 NSCLC,13.2 µM
same,GI50,UACC-257 melanoma,3.93 µM
same,TGI,UACC-257 melanoma,> 100 µM
same,GI50,MOLT-4 leukemia,2.82 µM
same,TGI,MOLT-4 leukemia,9.35 µM
same,GI50,OVCAR-4 ovarian,2.89 µM
same,TGI,OVCAR-4 ovarian,7.22 µM
same,GI50,HL-60(TB) leukemia,2.32 µM
same,TGI,HL-60(TB) leukemia,5.53 µM
same,GI50,LOX IMVI melanoma,2.03 µM
same,TGI,LOX IMVI melanoma,4.42 µM
same,GI50,T-47D breast,2.05 µM
same,TGI,T-47D breast,7.54 µM
same,GI50,HOP-92 NSCLC,1.31 µM
same,TGI,HOP-92 NSCLC,5.41 µM
same,GI50,HCT-15 colon,80.1 µM
same,TGI,HCT-15 colon,> 100 µM
same,GI50,COLO 205 colon,2.12 µM
same,TGI,COLO 205 colon,6.86 µM
same,GI50,SK-MEL-28 melanoma,2.42 µM
same,TGI,SK-MEL-28 melanoma,6.32 µM
same,GI50,NCI-H23 lung,1.98 µM
same,TGI,NCI-H23 lung,5.99 µM
same,GI50,SK-OV-3 ovarian,2.8 µM
same,TGI,SK-OV-3 ovarian,8.3 µM
same,GI50,SW-620 colon,3.36 µM
same,TGI,SW-620 colon,> 100 µM
same,GI50,UACC-62 melanoma,2.37 µM
same,TGI,UACC-62 melanoma,6.95 µM
same,GI50,MDA-MB-231 breast,1.91 µM
same,TGI,MDA-MB-231 breast,6.99 µM
same,GI50,SR leukemia,2.13 µM
same,TGI,SR leukemia,7.87 µM
same,GI50,HS 578T breast,3 µM
same,TGI,HS 578T breast,17.4 µM
same,GI50,NCI-H226 lung,2.27 µM
same,TGI,NCI-H226 lung,6.11 µM
same,GI50,NCI-H460 lung,2.95 µM
same,TGI,NCI-H460 lung,10.8 µM
same,GI50,A549 NSCLC,2.62 µM
same,TGI,A549 NSCLC,> 100 µM
same,GI50,DU-145 prostate,2.1 µM
same,TGI,DU-145 prostate,5.83 µM
same,GI50,BT-549 breast,2.51 µM
same,TGI,BT-549 breast,7.77 µM
same,GI50,PC-3 prostate,2.22 µM
same,TGI,PC-3 prostate,6.99 µM
same,GI50,SF-539 CNS,1.89 µM
same,TGI,SF-539 CNS,4.87 µM
same,GI50,SF-295 CNS,11.9 µM
same,TGI,SF-295 CNS,38.9 µM
same,GI50,M14 melanoma,3.27 µM
same,TGI,M14 melanoma,13.1 µM
same,GI50,786-0 renal,10.4 µM
same,TGI,786-0 renal,35.4 µM
same,GI50,NCI/ADR-RES ovarian,> 100 µM
same,TGI,NCI/ADR-RES ovarian,> 100 µM
same,GI50,MCF7 breast,0.392 µM
same,TGI,MCF7 breast,5.15 µM
same,GI50,OVCAR-8 ovarian,3.61 µM
same,TGI,OVCAR-8 ovarian,> 100 µM
same,GI50,K-562 leukemia,1.91 µM
same,TGI,K-562 leukemia,> 100 µM
same,GI50,OVCAR-3 ovarian,2.66 µM
same,TGI,OVCAR-3 ovarian,8.04 µM
same,GI50,OVCAR-5 ovarian,2.38 µM
same,TGI,OVCAR-5 ovarian,7.96 µM
same,GI50,MDA-MB-435,2.41 µM
same,TGI,MDA-MB-435,6.25 µM
same,GI50,IGROV1 ovarian,2.89 µM
same,TGI,IGROV1 ovarian,13.1 µM
same,GI50,SF-268 CNS,2.25 µM
same,TGI,SF-268 CNS,6.44 µM
same,GI50,CCRF-CEM leukemia,2.34 µM
same,TGI,CCRF-CEM leukemia,> 100 µM
same,GI50,MALME-3M melanoma,2.11 µM
same,TGI,MALME-3M melanoma,5.58 µM
same,GI50,NCI-H522 lung,0.431 µM
same,TGI,NCI-H522 lung,5.56 µM
same,GI50,ACHN renal,39.4 µM
same,TGI,ACHN renal,> 100 µM
same,GI50,KM12 colon,2.54 µM
same,TGI,KM12 colon,6.47 µM
same,GI50,TK-10 renal,18.6 µM
same,TGI,TK-10 renal,64.8 µM
same,GI50,CAKI-1 renal,41 µM
same,TGI,CAKI-1 renal,> 100 µM
same,GI50,UO-31 renal,> 100 µM
same,TGI,UO-31 renal,> 100 µM
same,GI50,SNB-19 CNS,2.66 µM
same,TGI,SNB-19 CNS,8.38 µM
same,GI50,SN12C renal,1.71 µM
same,TGI,SN12C renal,8.57 µM
same,GI50,HCT-116 colon,2.57 µM
same,TGI,HCT-116 colon,8.82 µM
same,GI50,SK-MEL-2 melanoma,2.36 µM
same,TGI,SK-MEL-2 melanoma,5.89 µM
